Series [1] relates to rheumatoid arthritis patients. The series can be described thus: Double-blind clinical trial of 10-deazaaminopterin versus methotrexate in rheumatoid arthritis: toxicity evaluation. The format is in vivo, human. The settings on record: for Toxicity: Dizziness / Toxicity: Gastrointestinal / Toxicity: Leukopenia / Toxicity: Rash: n = 7 per arm, 18 week trial. Here is the method:
The double-blind clinical trail of 10-deazaaminopterin versus methotrexate in rheumatoid arthritis was conducted at Universidad Peruana Cayetano Heredia, Lima, Peru. In order to detect 30% differences in either direction for both -efficacy and toxicity a sample size of 20 was used. The trial was conducted according to the following protocol.
The null hypotheses to be investigated included the following
Randomization was performed before the study began; an equal number of patients in each arm of the protocol was secured. Codes were made available to the investigator in sealed envelopes at the beginning of the trial; they were allowed to be opened by the investigator, only if felt to be mandatory for patient management. Patients received a three week supply of either 10-deazaaminopterin or methotrexate. […] Initially the patients received three capsules/week (or 7.5 mg). The capsules were taken at 12 hour intervals over a 24 hour period (8 a.m.-8 p.m. -8 a.m. the following day).
A data base which included a complete history, physical and laboratory exams was completed (Visit 0 or eligibility visit). […] If the patient was felt to be eligible, he/she was entered into the trial the following week (Visit 1) at which time disease activity was assessed and a functional test completed. Patients returned to the clinic every three weeks at which time joint counts were performed, side effects monitored and laboratory studies obtained. An assessment of response was done at week nine (Visit 3). At week 18 (Visit 6) or before (if the patient decides to be removed from the trial) the patient would have a complete exit evaluation, similar to the one performed on visit 1.
Joint counts for pain/tenderness in 60 diarthrodial joints and for swelling in 58 diarthrodial joints Laboratory tests included: CBC, with platelets and differential, Creatinine, SGOT and Alkaline phosphatase. […] 5 ml of sera were secured at entry and at study completion and stored at -20° C. for further studies.
Adverse effects were determined by interviewing the patient; each new symptom developing since the previous visit were recorded as to the date or onset, date of cessation, and whether it was felt to be related or unrelated to the study drug(s).
Minor itching and skin rashes could be handled with antihistaminics or topical steroids; a drop in the WBC ([…]) or in the platelets (<100,000/mm^3), or an increase in the liver enzymes ×2 normal), or an increase in the baseline creatinine (×2 normal) would prompt holding the drug for one week; if the values improved, patients may be restarted on the drug; if no improvement occurs in 3 weeks, the patient should be withdrawn. […] If no improvement occurs in 3 weeks, the patient should be withdrawn from the trial. If a patient develops a serious intercurrent infectious process, or requires elective or emergency surgery during the study period, the patient should be withdrawn from the trial.

For series [2] the following is noted: mammalian tissues; cited from earlier work.
Another series has as its system dihydrofolate reductase. The settings on record: 10-deazaaminopterin compared with methotrexate; cited from earlier work.
The next series concerns cancer patients. The settings on record: anticancer clinical trials, Cancer Treatment Reports 71:95, 1987; cited from earlier work.
For series [3], the system named is patients receiving methotrexate. The settings on record: cited from earlier work.

Regarding `Nc1nc(N)c2nc(CCc3ccc(C(=O)NC(CCC(=O)O)C(=O)O)cc3)cnc2n1` (stereo not shown) [10-deazaaminopterin], the “Toxicity in humans versus methotrexate (in words)” value in series [1] (clinical trials (not further specified), compared with methotrexate) is given as “remarkably less toxic to humans”. In addition, the “Frequency of toxicity (in words)” value in series [1] (human, in vivo) is “low frequency of toxicity”. Besides, in series [1], the “Toxicity: Dizziness” value is recorded as 0, the “Toxicity: Gastrointestinal” value is on record as 2, the “Toxicity: Leukopenia” value amounted to 0 and the “Toxicity: Rash” value stood at 1. Moreover, the Metabolism to poly-gamma-glutamates result in series [2] is reported as “also metabolized to its poly-gamma-glutamates in mammalian tissues”. The “Inhibition of dihydrofolate reductase (in words)” value in the series with dihydrofolate reductase is on record as “inhibit this enzyme to approximately the same magnitude”. In the series with cancer patients, the Bone marrow depression result was “minimal”; the Nausea and vomiting entry is “mild”.
With `CN(Cc1cnc2nc(N)nc(N)c2n1)c1ccc(C(=O)N[C@@H](CCC(=O)O)C(=O)O)cc1` [methotrexate, reference compound], in series [1], the “Toxicity: Dizziness” value was determined as 1, the “Toxicity: Gastrointestinal” value stood at 2, the “Toxicity: Leukopenia” value is listed as 1 and the “Toxicity: Rash” value was 0. For the same compound, the Metabolism to poly-gamma-glutamates entry in series [2] is “metabolism of methotrexate to its poly-gamma-glutamates”. Further, the “Inhibition of dihydrofolate reductase (in words)” value in the series with dihydrofolate reductase was “inhibit this enzyme to approximately the same magnitude”. For the same compound, the “Patients who experienced an adverse drug reaction during treatment” value in series [3] (human, in vivo) is recorded as 93 % of patients. The “Patients with toxic manifestations (nausea, stomatitis, elevated liver function tests, cytopenias, pulmonary toxicity)” value in series [3] (patients receiving methotrexate) is on record as 30-60 % of patients. For the same compound, the “Toxicity of methotrexate (in words)” value in series [3] (use in rheumatoid arthritis) is reported as “very toxic drug”.

These data come from patent publication US5030634A (priority 1990, dated 1991).
